Data on three compounds can be found in patent US20080160019A1, “SEQUENTIAL COMBINATION THERAPY” (DYAX CORP., priority 2006, published 2008).

Type in all cases: in vivo, nude mice (nu/nu)
Assay [1] relates to BxPC3 (human pancreatic cancer cell line) tumor. Description: Pancreatic cancer xenograft model, tumor size by calipers (Example 3). For calculated tumor growth rate, After Avastin: unit not given here. For calculated tumor growth rate, Before Avastin (Day 10): unit not given here. For calculated tumor growth rate, Before Avastin (Day 21): unit not given here. As for the experimental part:
The antitumor activity of combinations of DX-2240 and bevacizumab (anti-VEGF antibody) or sorafenib (multi-kinase inhibitor) were tested in a human tumor xenograft model. BxPC3 (human pancreatic cancer cell line) tumor fragments harvested from host nude mice (nu/nu) bearing subcutaneous BxPC-3 tumors were implanted subcutaneously into female nude mice (study animals) and allowed to form tumors. Mice were pair matched by tumor size and randomized into the various treatment groups when the tumors reached approximately 100 mm^3 (about 18 days following tumor implantation). The animals were assorted into the treatment groups shown in Table 1 (“Start” refers to the day on which treatment was begun). DX-2240 was administered by intraperitoneal (IP) injection at 20 mg/kg; bevacizumab was administered by IP injection at 10 mg/kg, sorafenib was administered orally at 60 mg/kg (for a total of 9 doses), and the control IgG (palivizumab, an antibody of the same isotype as DX-2240) was administered by IP injection at 20 mg/kg at the indicated dosing start dates and dosing regimens. An additional positive control group (group 13) was included: these animals were dosed with gemcitabine at 40 mg/kg Q3d for a total of four doses.
Tumor size was evaluated every three to four days using calipers.

The subject of assay [2] is tumor vasculature. As to the kind of experiment: Lectin staining of tumors (tumor vasculature, Example 5). Note: unit not given here. To be noted: 20 mg/kg IP Q2D from day 1, BxPC3 tumors. How it is done: To determine changes in tumor vasculature, three animals from each of groups 1 and 2 were randomly selected for destructive sample collection, including tumor and serum on days 5, 10, 15, and 20. Animals were injected IV with 150 μL of a biotinylated-lectin solution (no injections on day 5 and 15). Five minutes later, animals were perfused by intracardiac injection with a 1% paraformaldehyde solution in PBS for 3 minutes. Tumors were then collected, placed in the perfusion solution, and sent immediately for analysis. Blood was collected by cardiac puncture and serum extracted, flash frozen in liquid nitrogen, and stored at −80° C.

Assay [3] concerns DU 145 human prostate tumor model. As to the kind of experiment: DU 145 prostate tumor model, mean tumor volume (Example 6). As to conditions: 20 mg/kg IP Q2D x17 from day 1. How it is done:
Male nude mice (nu/nu) were injected subcutaneously with DU 145 cells harvested from tissue culture (˜1×10^7 cells/mouse). When tumors grew to approximately 95 mm^3 in size (about 7 days following injection), animals were pair-matched by tumor size into treatment and control groups.
Treatment was initiated after the animals were paired-matched (day 1). Animals in control and treatment groups were dosed by weight (10 ml/kg). DX-2240 and the control IgG (palivizumab) were administered by IP injection either once every other day for seventeen treatments beginning day 1 or once every four days for nine treatments beginning day 1. Sorafenib was dosed per os via gavage once daily for nine treatments beginning day 15. To serve as a control, the control IgG was administered every other day for seventeen treatments beginning day 1. Individual and group mean tumor volumes were recorded twice weekly from day 1 until day 57.

The subject of assay [4] is BxPC-3 human pancreas cancer model. As to the kind of experiment: BxPC-3 pancreas cancer model, dosing schedules, mean tumor volume (Example 5). To be noted: 20 mg/kg IP Q2D x10 from day 1, implanted tumor fragments. As for the experimental part: Female nude mice (nu/nu) were divided into 14 groups. Animals in groups 1-12 were implanted subcutaneously by trocar with BxPC3 tumor fragments harvested from growing tumors in nude mice hosts. Mice in groups 13-14 were injected subcutaneously with approximately 1×10^7 BxPC-3 cells from tissue culture. When injected tumors grew to approximately 104 mm^3 in size (about 19 days following implantation) and implanted tumors grew to approximately 110 mm^3 in size (about 22 days following implantation) animals were pair-matched by tumor size into treatment and control groups. Animals from groups 1 and 2 were used to evaluate tumor vasculature. Animals from groups 13 and 14 were used to compare effects of DX-2240 on tumors formed from cell injection.
Treatment was initiated after the animals were pair-matched (day 1). Animals in all groups were dosed by weight (10 ml/kg). The control IgG and DX-2240 were administered by IP injection at 20 mg/kg, and bevacizumab and the rat α-mouse VEGF IgG antibody were administered by IP injection at 10 mg/kg once every three days. Dosing was initiated on day −3, 1, 5, 6, 10 or 20.
Individual and group mean tumor volumes were recorded twice weekly from day 1 until day 39.

On to `Nc1ccn([C@@H]2O[C@H](CO)[C@@H](O)C2(F)F)c(=O)n1` [gemcitabine], for which the Tumor volume is 106.5 mm^3 in assay [1] (day 1, 40 mg/kg Q3d, four doses (positive control group 13)); 144.1 mm^3 in assay [1] (day 3, 40 mg/kg Q3d, four doses (positive control group 13)); 214.9 mm^3 in assay [1] (day 7, 40 mg/kg Q3d, four doses (positive control group 13)); 280.8 mm^3 in assay [1] (day 10, 40 mg/kg Q3d, four doses (positive control group 13)); 347.7 mm^3 in assay [1] (day 14, 40 mg/kg Q3d, four doses (positive control group 13)); 686.1 mm^3 in assay [1] (day 21, 40 mg/kg Q3d, four doses (positive control group 13)). In addition, the Tumor volume in assay [1] (day 24, 40 mg/kg Q3d, four doses (positive control group 13)) stood at 848.1 mm^3; in assay [1] (day 28, 40 mg/kg Q3d, four doses (positive control group 13)) it was 1084.8 mm^3; in assay [1] (day 31, 40 mg/kg Q3d, four doses (positive control group 13)), 1325.2 mm^3.

`CNC(=O)c1cc(Oc2ccc(NC(=O)Nc3ccc(Cl)c(C(F)(F)F)c3)cc2)ccn1` [sorafenib]: the “tumor size as compared to control” value in assay [1] (as single agents) is reported as “reduced tumor size”.

As to “Control IgG: palivizumab, an antibody of the same isotype as DX-2240 [reference compound]”, the “lectin staining, High intensity (3+)” value worked out at 19242 in assay [2] (Day 10) and 7824 in assay [2] (Day 20). For the same compound, the “lectin staining, Low intensity (1+)” value in assay [2] (Day 10) was determined as 1214685; in assay [2] (Day 20) it was 222879. The “lectin staining, Medium intensity (2+)” value in assay [2] (Day 10) came out at 3148400; in assay [2] (Day 20), 272402. Moreover, the “calculated tumor growth rate, After Avastin” value in assay [1] (DX-2240 or control IgG 20 mg/kg IP Q2d from day 1, after bevacizumab 10 mg/kg IP Q3d (twenty day pretreatment groups)) is reported as 23.8 ± 8.6; in assay [1] (DX-2240 or control IgG 20 mg/kg IP Q2d from day 1, after bevacizumab 10 mg/kg IP Q3d started at day 10), 33.3 ± 6.6. Further, in assay [1] (DX-2240 or control IgG 20 mg/kg IP Q2d from day 1, before bevacizumab (twenty day pretreatment groups)), the “calculated tumor growth rate, Before Avastin (Day 21)” value is given as 28.3 ± 5.2. The “calculated tumor growth rate, Before Avastin (Day 10)” value in assay [1] (DX-2240 or control IgG 20 mg/kg IP Q2d from day 1, before bevacizumab start at day 10) is on record as 41.1 ± 9.0. In addition, the “# of stable tumor growths or tumor regressions” value in assay [1] (DX-2240 or control IgG from day 1, bevacizumab (Avastin) after twenty day pretreatment) was 1/8; in assay [1] (DX-2240 or control IgG from day 1, bevacizumab (Avastin) from day 10), 0/8. For the same compound, the Tumor volume in assay [1] (day 1, 20 mg/kg IP Q2d from day 1) came to 106.9 mm^3; in assay [1] (day 3, 20 mg/kg IP Q2d from day 1), 164.7 mm^3; in assay [1] (day 7, 20 mg/kg IP Q2d from day 1), 293.2 mm^3; in assay [1] (day 10, 20 mg/kg IP Q2d from day 1) it was 366.4 mm^3; in assay [1] (day 14, 20 mg/kg IP Q2d from day 1) it was 521.8 mm^3; in assay [1] (day 21, 20 mg/kg IP Q2d from day 1), 907.5 mm^3. Moreover, the Tumor volume in assay [1] (day 24, 20 mg/kg IP Q2d from day 1) is 1062.0 mm^3; in assay [1] (day 28, 20 mg/kg IP Q2d from day 1), 1354.0 mm^3; in assay [1] (day 31, 20 mg/kg IP Q2d from day 1) it was 1669.1 mm^3. The mean tumor volume in assay [3] (day 1) is 94.9 mm^3; in assay [3] (day 5), 125.7 mm^3; in assay [3] (day 9) it was 195.1 mm^3; in assay [3] (day 13), 293.5 mm^3; in assay [3] (day 15), 320.9 mm^3; in assay [3] (day 19), 400.7 mm^3. The mean tumor volume in assay [3] (day 23) came to 417.8 mm^3; in assay [3] (day 26), 487.6 mm^3; in assay [3] (day 29) it was 450.5 mm^3; in assay [3] (day 33), 501.1 mm^3; in assay [3] (day 36) it was 529.3 mm^3; in assay [4] (day 1), 107.6 mm^3. In addition, the mean tumor volume is reported as 180.1 mm^3 in assay [4] (day 4); 237.7 mm^3 in assay [4] (day 8); 249.9 mm^3 in assay [4] (day 11); 355.9 mm^3 in assay [4] (day 15); 300.0 mm^3 in assay [4] (day 18).
